This note sets out measurements from PMC11836120, “A small signaling domain controls PPIP5K phosphatase activity in phosphate homeostasis” (Nature Communications, 2025).

For series [1], the target named is T1, ScVip1 phosphatase domain (ScVip1^PD E991A) (Saccharomyces cerevisiae, UniProt Q06685, E991A).
T1 construct: gene VIP1; residues 536–1107
T1 sequence (Q06685 536-1107 E991A): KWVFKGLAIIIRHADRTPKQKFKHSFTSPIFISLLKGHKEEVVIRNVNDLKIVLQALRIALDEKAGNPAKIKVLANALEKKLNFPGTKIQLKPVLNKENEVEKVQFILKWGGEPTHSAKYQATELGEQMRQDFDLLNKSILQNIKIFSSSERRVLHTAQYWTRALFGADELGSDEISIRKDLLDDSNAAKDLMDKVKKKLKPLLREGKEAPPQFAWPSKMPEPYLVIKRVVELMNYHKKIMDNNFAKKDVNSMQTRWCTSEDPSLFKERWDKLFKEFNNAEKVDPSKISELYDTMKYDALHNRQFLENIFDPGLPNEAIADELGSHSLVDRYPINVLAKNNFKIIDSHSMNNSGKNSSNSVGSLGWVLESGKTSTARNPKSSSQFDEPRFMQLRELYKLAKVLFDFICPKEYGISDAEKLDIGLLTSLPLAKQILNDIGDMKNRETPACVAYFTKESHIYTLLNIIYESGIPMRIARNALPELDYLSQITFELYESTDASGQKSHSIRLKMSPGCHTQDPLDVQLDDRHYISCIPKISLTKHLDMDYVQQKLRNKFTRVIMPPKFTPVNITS
The series is described as follows: NMR and malachite green phosphatase assays. It is filed as biochemical.

Series [2] has as its target T2, ScVip1 kinase-phosphatase tandem domains (ScVip1^KD-PD) (Saccharomyces cerevisiae, UniProt Q06685).
T2 construct: gene VIP1
T2 sequence (Q06685 186-1107): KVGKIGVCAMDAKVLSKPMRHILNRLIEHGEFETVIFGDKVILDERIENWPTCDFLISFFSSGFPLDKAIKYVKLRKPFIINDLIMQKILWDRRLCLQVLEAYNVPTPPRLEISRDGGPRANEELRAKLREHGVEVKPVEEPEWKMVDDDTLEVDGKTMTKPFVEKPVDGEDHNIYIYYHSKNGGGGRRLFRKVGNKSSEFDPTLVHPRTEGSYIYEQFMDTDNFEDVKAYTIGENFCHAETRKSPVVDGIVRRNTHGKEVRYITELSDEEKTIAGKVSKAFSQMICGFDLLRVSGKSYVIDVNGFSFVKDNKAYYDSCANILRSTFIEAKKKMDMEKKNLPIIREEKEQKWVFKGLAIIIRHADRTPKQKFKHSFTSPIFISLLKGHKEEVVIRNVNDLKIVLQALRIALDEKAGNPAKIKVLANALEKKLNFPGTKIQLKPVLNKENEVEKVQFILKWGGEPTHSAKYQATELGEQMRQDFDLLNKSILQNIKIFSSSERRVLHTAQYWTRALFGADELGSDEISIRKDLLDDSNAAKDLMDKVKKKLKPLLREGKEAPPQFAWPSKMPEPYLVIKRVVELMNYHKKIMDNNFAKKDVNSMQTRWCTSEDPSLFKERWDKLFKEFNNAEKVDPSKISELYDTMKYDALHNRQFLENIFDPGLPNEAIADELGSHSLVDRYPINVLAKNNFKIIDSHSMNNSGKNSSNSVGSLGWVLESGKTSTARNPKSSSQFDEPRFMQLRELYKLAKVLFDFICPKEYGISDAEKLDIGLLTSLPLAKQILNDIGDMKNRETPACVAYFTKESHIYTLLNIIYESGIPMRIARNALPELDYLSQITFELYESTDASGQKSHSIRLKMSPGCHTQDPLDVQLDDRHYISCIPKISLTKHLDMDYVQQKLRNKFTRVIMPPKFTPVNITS
Kind of series: HDX-MS, […] molar excess.

In series [3] the target is T3, ScVip1 kinase domain (ScVip1^KD) (Saccharomyces cerevisiae, UniProt Q06685).
T3 construct: gene VIP1; residues 186–522
The series is described as follows: co-crystal structure, […] Å (crystallized with […] ADP and […] MgCl2). It is filed as binding.

For series [4], the target named is T4, ScVip1 phosphatase domain (ScVip1^PD) (Saccharomyces cerevisiae, UniProt Q06685).
T4 construct: gene VIP1; residues 536–1107
T4 sequence (Q06685 536-1107): T1 sequence (Q06685 536-1107 E991A)
The series is described as follows: NMR time course of […],5-InsP8 hydrolysis. The class given is biochemical.

Substrate in series [5]: O=P(O)(O)O[C@@H]1[C@@H](OP(=O)(O)O)[C@@H](OP(=O)(O)O)[C@@H](OP(=O)(O)OP(=O)(O)O)[C@H](OP(=O)(O)O)[C@H]1OP(=O)(O)O
Kind of series: malachite green and NMR phosphatase assays, Michaelis-Menten KM. The class given is biochemical, Saccharomyces cerevisiae.

Substrate in series [6]: O=P(O)(O)O[C@@H]1[C@@H](OP(=O)(O)O)[C@H](OP(=O)(O)OP(=O)(O)O)[C@@H](OP(=O)(O)O)[C@H](OP(=O)(O)OP(=O)(O)O)[C@@H]1OP(=O)(O)O
The description is as above. The class given is biochemical, Saccharomyces cerevisiae. Particulars: phosphatase active site (RHxxR motif) and GAF-domain substrate channel.

By Km is commonly meant the concentration of substrate that gives half-maximal velocity.

Consider `O=P(O)(O)O[C@@H]1[C@@H](OP(=O)(O)O)[C@@H](OP(=O)(O)O)[C@@H](OP(=O)(O)OP(=O)(O)O)[C@H](OP(=O)(O)O)[C@H]1OP(=O)(O)O` [1-InsP7], for which, in series [1], the “NMR and malachite green phosphatase assays” value was “Glu991 to Ala mutant readily accepts 1-InsP7 as a substrate in both NMR and malachite green-based phosphatase assays”.
With `Nc1ncnc2c1ncn2[C@@H]1O[C@H](CO[P@](=O)(O)O[P@](=O)(O)NP(=O)(O)O)[C@@H](O)[C@H]1O` [AMPPNP, AMP-PNP], the “HDX-MS, 100-fold molar excess” value in series [2] is reported as “Addition of an ATP substrate analog reveals additional protected regions in the vicinity of the active site of the kinase domain”.
On to `Nc1ncnc2c1ncn2[C@@H]1O[C@H](COP(=O)(O)OP(=O)(O)O)[C@@H](O)[C@H]1O` [ADP], for which the “co-crystal structure, 1.18 Å (crystallized with 5 mM ADP and 20 mM MgCl2)” value in series [3] is “The structure of ScVip1^KD in complex with adenosine diphosphate revealed the typical ATP-grasp fold and substrate binding sites”.
Take `O=P(O)(O)O` [inorganic phosphate]: the “NMR time course of 1,5-InsP8 hydrolysis” value in series [4] is “ScVip1^PD is inhibited by Pi in a concentration-dependent manner, as inferred from NMR-based assays”.

B1: ScVip1 phosphatase domain (ScVip1^PD) (Saccharomyces cerevisiae S288C) (protein)
chain: T1 sequence (Q06685 536-1107 E991A)
notes: residues 536–1107
B1: the Michaelis constant (Km) in series [5] is 70 µM; in series [6] it was 45 µM.
